Assay results as given in US12655174B2, “Adenosine A3 receptor agonists, preparation methods and uses thereof” (ZHEJIANG VIMGREEN PHARMACEUTICALS, LTD., priority 2020, dated 2026).

experiment: Pharmacokinetic test of compound in SD rat; assay type: in vivo; conditions: SD rats, intragastric administration (IG), cassette dosing
Method: Example 28: Pharmacokinetic Test of Compound in SD Rat
The animal species used in this experiment were SD rats. There were 3 animals per group. The rats were dosed in cassette format, i.e., multiple (1-6) different compounds were dosed simultaneously to the same group of the SD rats. The vehicle used for the drug was 5% DMSO+5% Solutl+90% ([…] methylcellulose M450), and the administration route was intragastric administration (IG).

Structure (SMILES)	AUC_D [kg·ng·h/mL/mg]
[2H]C([2H])([2H])NC(=O)[C@H]1O[C@@H](n2cnc3c(NCc4ccccc4)nc(-c4cncc(Cl)c4)nc32)[C@H](O)[C@@H]1O [compound 15, (2S,3S,4R,5R)-5-(6-(benzylamino)-2-(5-chloropyridin-3-yl)-9H-purin-9-yl)-3,4-dihydroxyl-N-(methyl-d3)-tetrahydrofuran-2-formamide]	807.78
[2H]C([2H])([2H])NC(=O)[C@H]1O[C@@H](n2cnc3c(NCc4ccccc4)nc(-c4cncc(C)c4)nc32)[C@H](O)[C@@H]1O [compound 16, (2S,3S,4R,5R)-5-(6-(benzylamino)-2-(5-methylpyridin-3-yl)-9H-purin-9-yl)-3,4-dihydroxyl-N-(methyl-d3)-tetrahydrofuran-2-formamide]	1291.00
[2H]C([2H])([2H])NC(=O)[C@H]1O[C@@H](n2cnc3c(NCc4ccccc4)nc(-c4ccco4)nc32)[C@H](O)[C@@H]1O [compound 12, (2S,3S,4R,5R)-5-(6-(benzylamino)-2-(furan-2-yl)-9H-purin-9-yl)-3,4-dihydroxyl-N-(methyl-d3)-tetrahydrofuran-2-formamide]	79.00
[2H]C([2H])([2H])NC(=O)[C@H]1O[C@@H](n2cnc3c(NCC(F)(F)F)nc(-c4cncc(Cl)c4)nc32)[C@H](O)[C@@H]1O [compound 202]	138.00
[2H]C([2H])([2H])NC(=O)[C@H]1O[C@@H](n2cnc3c(NCc4cc(Cl)ccn4)nc(-c4cncc(Cl)c4)nc32)[C@H](O)[C@@H]1O [compound 214]	765.47
[2H]C([2H])([2H])NC(=O)[C@H]1O[C@@H](n2cnc3c(NCc4cccc(OC)c4)nc(-c4cncc(Cl)c4)nc32)[C@H](O)[C@@H]1O [compound 265, (2S,3S,4R,5R)-5-(2-(5-chloropyridin-3-yl)-6-(3-methoxybenzylamino)-9H-purin-9-yl)-3,4-dihydroxyl-N-(methyl-d3)-tetrahydrofuran-2-carboxamide]	764.50
[2H]C([2H])([2H])NC(=O)[C@H]1O[C@@H](n2cnc3c(OCc4ccccc4)nc(-c4cncc(Cl)c4)nc32)[C@H](O)[C@@H]1O [compound 323, (2S,3S,4R,5R)-5-(6-(benzyloxy)-2-(5-chloropyridin-3-yl)-9H-purin-9-yl)-3,4-dihydroxyl-N-(methyl-d3)-tetrahydrofuran-2-formamide]	1309.00
CNC(=O)[C@H]1O[C@@H](n2cnc3c(NCc4ccccc4)nc(-c4ccoc4)nc32)[C@H](O)[C@@H]1O [compound 149, (2S,3S,4R,5R)-5-(6-(benzylamino)-2-(furan-3-yl)-9H-purin-9-yl)-3,4-dihydroxyl-N-methyltetrahydrofuran-2-carboxamide]	337.00
[2H]C([2H])([2H])NC(=O)[C@H]1O[C@@H](n2cnc3c(NCc4cccc(I)c4)ncnc32)[C@H](O)[C@@H]1O [compound 1, (2S,3S,4R,5R)-5-(6-(3-iodobenzylamino)-9H-purin-9-yl)-3,4-dihydroxyl-N-(methyl-d3)-tetrahydrofuran-2-formamide]	343.50
[2H]C([2H])([2H])NC(=O)[C@H]1O[C@@H](n2cnc3c(NCc4cccnc4)nc(-c4cncc(Cl)c4)nc32)[C@H](O)[C@@H]1O [compound 235, (2S,3S,4R,5R)-5-(2-(5-chloropyridin-3-yl)-6-(pyridin-3-ylmethylamino)-9H-purin-9-yl)-3,4-dihydroxyl-N-(methyl-d3)-tetrahydrofuran-2-carboxamide]	1456.00
[2H]C([2H])([2H])NC(=O)[C@H]1O[C@@H](n2cnc3c(NCc4cc(C)ccc4F)nc(-c4cncc(Cl)c4)nc32)[C@H](O)[C@@H]1O [compound 225, (2S,3S,4R,5R)-5-(2-(5-chloropyridin-3-yl)-6-((2-fluoro-5-methylbenzyl)amino)-9H-purin-9-yl)-3,4-dihydroxyl-N-(methyl-d3)-tetrahydrofuran-2-carboxamide]	11356.86
[2H]C([2H])([2H])NC(=O)[C@H]1O[C@@H](n2cnc3c(NCc4cccc(C)c4)nc(-c4cncc(Cl)c4)nc32)[C@H](O)[C@@H]1O [compound 164, (2S,3S,4R,5R)-5-(6-(m-methylphenylmethylamino)-2-(5-chloropyridin-3-yl)-9H-purin-9-yl)-3,4-dihydroxyl-N-(methyl-d3)-tetrahydrofuran-2-formamide]	845.57
CCOc1cncc(-c2nc(NCc3ccccc3)c3ncn([C@@H]4O[C@H](C(=O)NC)[C@@H](O)[C@H]4O)c3n2)c1 [compound 158, (2S,3S,4R,5R)-5-(6-(benzylamino)-2-(5-ethoxypyridin-3-yl)-9H-purin-9-yl)-3,4-dihydroxyl-N-methyltetrahydrofuran-2-carboxamide]	602.00
[2H]C([2H])([2H])NC(=O)[C@H]1O[C@@H](n2cnc3c(NCc4ccc(Cl)cc4)nc(-c4cncc(Cl)c4)nc32)[C@H](O)[C@@H]1O [compound 168, (2S,3S,4R,5R)-5-(6-(4-chlorobenzylamino)-2-(5-chloropyridin-3-yl)-9H-purin-9-yl)-3,4-dihydroxyl-N-(methyl-d3)-tetrahydrofuran-2-formamide]	1551.15
[2H]C([2H])([2H])NC(=O)[C@H]1O[C@@H](n2cnc3c(NCc4ccccc4)nc(-c4cncc(C#N)c4)nc32)[C@H](O)[C@@H]1O [compound 19, (2S,3S,4R,5R)-5-(6-(benzylamino)-2-(5-cyanopyridin-3-yl)-9H-purin-9-yl)-3,4-dihydroxyl-N-(methyl-d3)-tetrahydrofuran-2-formamide]	74.00
[2H]C([2H])([2H])NC(=O)[C@H]1O[C@@H](n2cnc3c(NCc4ccccc4)nc(-c4cnc(C)c(C)c4)nc32)[C@H](O)[C@@H]1O [compound 17, (2S,3S,4R,5R)-5-(6-(benzylamino)-2-(5,6-dimethylpyridin-3-yl)-9/-purin-9-yl)-3,4-dihydroxyl-N-(methyl-d3)-tetrahydrofuran-2-formamide]	168.00
CNC(=O)[C@H]1O[C@@H](n2cnc3c(NCc4ccccn4)nc(-c4cncc(C)c4)nc32)[C@H](O)[C@@H]1O [compound 69, (2S,3S,4R,5R)-3,4-dihydroxyl-N-methyl-5-(2-(5-methylpyridin-3-yl)-6-((pyridin-2-ylmethyl)amino)-9H-purin-9-yl)tetrahydrofuran-2-carboxamide]	360.90
[2H]C([2H])([2H])NC(=O)[C@H]1O[C@@H](n2cnc3c(NCc4cccc(F)c4)nc(-c4cncc(Cl)c4)nc32)[C@H](O)[C@@H]1O [compound 321]	1167.46
[2H]C([2H])([2H])NC(=O)[C@H]1O[C@@H](n2cnc3c(NCc4cccc(C#N)c4)nc(-c4cncc(Cl)c4)nc32)[C@H](O)[C@@H]1O [compound 221, (2S,3S,4R,5R)-5-(2-(5-chloropyridin-3-yl)-6-((3-cyanobenzyl)amino)-9H-purin-9-yl)-3,4-dihydroxyl-N-(methyl-d3)-tetrahydrofuran-2-carboxamide]	278.77
CNC(=O)[C@H]1O[C@@H](n2cnc3c(NCc4cccc(F)c4)nc(-c4cncc(Cl)c4)nc32)[C@H](O)[C@@H]1O [compound 210, (2S,3S,4R,5R)-5-(2-(5-chloropyridin-3-yl)-6-((3-fluorobenzyl))amino-9H-purin-9-yl)-3,4-dihydroxyl-N-methyltetrahydrofuran-2-carboxamide]	580.90
[2H]C([2H])([2H])NC(=O)[C@H]1O[C@@H](n2cnc3c(NCc4ccc(OC)cc4)nc(-c4cncc(Cl)c4)nc32)[C@H](O)[C@@H]1O [compound 267, (2S,3S,4R,5R)-5-(2-(5-chloropyridin-3-yl)-6-(4-methoxybenzylamino)-9H-purin-9-yl)-3,4-dihydroxyl-N-(methyl-d3)-tetrahydrofuran-2-carboxamide]	82.98
CNC(=O)[C@H]1O[C@@H](n2cnc3c(NCc4ccccc4)nc(-c4ccsc4)nc32)[C@H](O)[C@@H]1O [compound 151, (2S,3S,4R,5R)-5-(6-(benzylamino)-2-(thiophen-3-yl)-9H-purin-9-yl)-3,4-dihydroxyl-N-methyltetrahydrofuran-2-carboxamide]	89.00
[2H]C([2H])([2H])NC(=O)[C@H]1O[C@@H](n2cnc3c(NCc4cscn4)nc(-c4cncc(Cl)c4)nc32)[C@H](O)[C@@H]1O [compound 253, (2S,3S,4R,5R)-5-(2-(5-chloropyridin-3-yl)-6-((thiazol-4-ylmethyl)amino)-9H-purin-9-yl)-3,4-dihydroxyl-N-(methyl-d3)tetrahydrofuran-2-carboxamide]	299.00
[2H]C([2H])([2H])NC(=O)[C@H]1O[C@@H](n2cnc3c(NCc4cccc(C)c4)nc(-c4cncc(F)c4)nc32)[C@H](O)[C@@H]1O [compound 162, (2S,3S,4R,5R)-5-(2-(5-fluoropyridin-3-yl)-6-((3-methylbenzyl)amino)-9H-purin-9-yl)-3,4-dihydroxyl-N-(methyl-d3)-tetrahydrofuran-2-carboxamide]	1156.15
[2H]C([2H])([2H])NC(=O)[C@H]1O[C@@H](n2cnc3c(NCc4ccccc4)nc(-c4cccnc4)nc32)[C@H](O)[C@@H]1O [compound 10, (2S,3S,4R,5R)-5-(6-(benzylamino)-2-(pyridin-3-yl)-9H-purin-9-yl)-3,4-dihydroxyl-N-(methyl-d3)-tetrahydrofuran-2-formamide]	146.00
